Results reported in patent publication US20180369195A1, “COMBINATION THERAPY FOR TREATMENT OF MELANOMA” (The Regents of the University of California, priority 2015, published 2018).

What was measured:
BRAF-V600E = target: T1, BRAF-V600E (Homo sapiens, UniProt P15056, V600E); assay: BRAF kinase assay on BRAF immunoprecipitated from pretreated G-361 cells; format: biochemical; details: G-361 cells treated 48 hours; 200 μM or 400 μM I3C, 10 μM Vemurafenib
T1 construct: BRAF-V600E was immunoprecipitated from untreated G-361 cells and incubated in vitro; endogenous in cells; host or cells: G-361 human melanoma cells (ATCC)
T1 sequence (P15056 whole entry V600E): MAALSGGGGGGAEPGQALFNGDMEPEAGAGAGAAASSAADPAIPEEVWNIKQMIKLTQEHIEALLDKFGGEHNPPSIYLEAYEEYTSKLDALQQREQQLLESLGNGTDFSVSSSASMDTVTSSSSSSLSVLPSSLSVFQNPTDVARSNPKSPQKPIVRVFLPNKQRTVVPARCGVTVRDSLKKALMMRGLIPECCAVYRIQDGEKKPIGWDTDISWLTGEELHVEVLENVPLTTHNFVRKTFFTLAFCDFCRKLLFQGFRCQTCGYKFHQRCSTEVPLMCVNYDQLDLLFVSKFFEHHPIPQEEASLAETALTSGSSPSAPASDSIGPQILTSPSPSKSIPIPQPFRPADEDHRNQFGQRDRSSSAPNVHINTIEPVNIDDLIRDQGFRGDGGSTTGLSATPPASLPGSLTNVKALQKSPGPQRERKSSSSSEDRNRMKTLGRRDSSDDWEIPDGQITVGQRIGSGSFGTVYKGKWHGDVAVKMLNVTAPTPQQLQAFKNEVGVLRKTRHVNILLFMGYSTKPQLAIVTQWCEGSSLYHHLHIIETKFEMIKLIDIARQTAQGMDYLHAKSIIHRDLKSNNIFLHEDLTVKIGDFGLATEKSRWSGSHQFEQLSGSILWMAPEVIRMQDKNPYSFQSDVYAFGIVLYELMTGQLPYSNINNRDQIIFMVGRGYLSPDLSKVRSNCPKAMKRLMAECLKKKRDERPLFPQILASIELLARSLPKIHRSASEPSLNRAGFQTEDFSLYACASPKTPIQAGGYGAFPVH
Protocol: BRAF was pulled down from the cell lysates using anti-BRAF antibodies bound to protein G-coupled Sepharose beads, while IgG was used as a negative control. Post-immunoprecipitation supernatants were probed with anti BRAF antibody by western blots to determine pull-down efficiency. […] The reactions were terminated by adding 4× sodium dodecyl sulfate (SDS) sample buffer and boiling the mixture at 100° C. for 5 min. The samples were then electrophoresed, immunoblotted and probed for relative protein levels of phosphorylated MEK and total MEK to assess the kinase activity of the immunoprecipitated BRAF.

RPMI-7951 cells = assay: CCK-8 proliferation assay, RPMI-7951; format: cell-based, human; details: 200 μM I3C, 72 hours; BRAF-V600E
Protocol: Cells were treated with 20 μM 1-benzyl I3C every 24 hours for 72 hours and harvested at 24, 48 and 72 hours for western blot and flow cytometric analysis. […] Subsequently inhibition of proliferation was assessed using Cell counting Kit-8 (Dojindo) as per the protocol in the user's manual. Briefly, 50 μl of the CCK-8 solution was added to each well along with 450 μl media and incubated for 2-3 hours. The absorbance was read at 450 nm and % inhibition was calculated for each condition standardizing DMSO to zero using the formula: [(100−Value of treatment/Value of DMSO treated control)×100]

MITF-M transcript = assay: RT-PCR analysis of MITF-M transcripts; format: cell-based, human; details: for MITF-M transcript levels: 200 μM I3C, 72 hour time course
Protocol: Total RNA was extracted from harvested cells using the RNeasy extraction kit for mammalian cells (obtained from Qiagen, Hercules, Calif.) and spectrophotometrically quantified by absorbance at 260 nm. Reverse transcription (RT) reactions were carried out using RT-MMLV reverse transcriptase (Invitrogen, Eugene, Oreg.) and the cDNA was used for polymerase chain reaction (PCR) reactions using 10 pM of the following primers: MITF-M forward 5′ CCGTCTCTCACTGGATTGGT 3′ (SEQ ID NO:1), MITF-M Reverse 5′ TACTTGGTGGGGTTTTCGAG 3′ (SEQ ID NO:2) GAPDH forward, […] (SEQ ID NO:3) and reverse, […] (SEQ ID NO:4). PCR conditions were as follows: 30 s at 94° C., 30 s at 55° C. and 30 s at 72° C. for 28 cycles. PCR products were electrophoretically fractionated in 1.5% agarose gels containing 0.01% Gel Red (Biotium) for DNA staining along with 1 kb plus DNA ladder (Thermo Scientific) and further visualized by a UV transilluminator.

LRP5/6 = assay: Western blot of Wnt co-receptor; format: cell-based, human; details: melanoma cell lines, 20 μM 1-benzyl I3C
Protocol: Western Blot analyses of samples electrophoretically fractionated on 12% acrylamide gels were carried out as previously described (Wagle et al., J. Clin. Oncol. 2011. 29(22):3085-3096; Nguyen et al., Chem. Biol. Interact. 2010. 186(3):255-266). Enhanced chemiluminescence (ECL) Lightening reagents were used to visualize the primary antibody bound protein bands in nitrocellulose membranes and the results captured on ECL Autoradiography Film (GE Healthcare, Piscataway, N.J.). The western blots employed the following primary antibodies: mouse anti-MITF-M (Thermo-scientific), mouse anti-HSP 90 (BD Biosciences), mouse anti-CDK2, rabbit anti-CDK4, rabbit anti-CDK-6, mouse anti-rabbit BRAF, goat anti-LEF-1, rabbit anti-AXIN, mouse anti-BCL2, (Santa Cruz), rabbit anti-P21, mouse anti-Cyclin D1, rabbit anti-MEK-p, rabbit anti-MEK1/2, rabbit anti-GSK3β rabbit anti-LRP6, rabbit anti-LRP6-phospho (Cell signaling), mouse anti-β-catenin (Invitrogen).

canonical Wnt signaling = assay: TOP Flash Wnt reporter assay in G361 cells; format: cell-based, human
Protocol: Murine fibroblast L cells stably transfected with a construct expressing high levels of human Wnt3A were used. The cells were grown in DMEM containing 4.5 g/L Glucose, 114 mg/L Sodium Pyruvate, and 2 mM L-glutamine, supplemented with 10% fetal bovine serum (Gemini Bio Products), 2 mM L-glutamine, and 2.5 ml of 10,000 U/ml penicillin/streptomycin mixture (Gibco, Life Technologies). Conditioned media was harvested in two batches, once during routine media change after 2 days of seeding the cells and once more when the plates were confluent. The cells were trypsinized as described earlier using 0.025% trypsin (Lonza) and pelleting the cells by a spin at 4000 rpm for 5 minutes and aspirating and filtering the supernatant through a 0.2 micron filter to obtain the conditioned media. The two batches of conditioned media were mixed 1:1 and stored in aliquots at −80° C. for future use.
The TOPflash/FOPflash (Millipore) reporter assay was performed on G361 cells to assess the effect of 1-benzyl I3C on β-catenin driven Wnt transcriptional activity. TOPflash is a TCF/LEF responsive luciferase construct encoding the firefly luciferase reporter under the control of a minimal (m) CMV promoter and tandem repeats of a TCF/LEF transcriptional response element (TRE). FOPflash is a similar construct with the LEF-1 binding site mutated which serves as the negative control. G361 cells were cultured to approximately 80% confluency in a 6 well clear bottom plate (Nunc). The TOPflash/FOPflash construct was transfected using Superfect Transfection Reagent (Qiagen.) according to the manufactures instructions. […] 20 μl of supernatant from each sample was combined with 100 μl luciferase substrate (Promega) and emitted fluorescence was measured using luminometer, Lumat LB 9507 (EG&G Berthold) and the relative light units (RLU) were recorded. The RLU/μg for each sample was calculated by dividing the data obtained with their specific protein concentration determined by a Bradford assay using 1× BioRad Protein Assay reagent and measuring O.D at 595 nm. […]

[1] = test system: normal epidermal melanocytes; assay: CCK-8 proliferation assay, normal epidermal melanocytes; format: cell-based; details: 1-benzyl I3C treatment

SMILES | BRAF-V600E enzymatic activity (phosphorylated MEK) after cellular treatment (BRAF-V600E) | sensitivity to anti-proliferative effects (RPMI-7951 cells) | MITF-M transcript levels (MITF-M transcript; G-361 and DM738 cells) | MITF-M transcript levels (MITF-M transcript; SK-MEL-2 cells) | LRP5/6 levels (LRP5/6) | Wnt signaling (TOP luciferase activity) (canonical Wnt signaling; G361 cells in Wnt conditioned media, 1-benzyl I3C 24 hours) | 1-benzyl I3C induced inhibition of luciferase activity, constitutively active LRP6 transfected cells (canonical Wnt signaling; G361 cells, 1-benzyl I3C 24 hours) | Wnt signaling (luciferase activity), wild-type vector transfected cells (canonical Wnt signaling; G361 cells, 1-benzyl I3C 24 hours vs vehicle) | MITF-M transcript level (MITF-M transcript; G-361, DM738, SK-MEL-2 cells, 1-benzyl I3C) | antiproliferative response [1]
OCc1c[nH]c2ccccc12 [I3C, indole-3-carbinol] | significantly inhibited BRAF-V600E enzymatic activity | Most sensitive | strongly down regulated MITF-M transcript levels | modest increase in MITF-M transcript levels |  |  |  |  |  | 
OCc1cn(Cc2ccccc2)c2ccccc12 [1-benzyl I3C, 1-benzyl indole-3-carbinol] |  |  |  |  | significantly downregulated | Wnt signaling was significantly attenuated | significantly rescued | significantly inhibited the Wnt signaling | concomitant inhibition of MITF-M transcript level | No such antiproliferative response
